The assay deals with T1, human CCR6 (Homo sapiens, UniProt P51684).
T1 construct: expressed in transfected cells; host or cells: Ba/F3 cells (mouse pro-B line)
T1 sequence (P51684 1-374): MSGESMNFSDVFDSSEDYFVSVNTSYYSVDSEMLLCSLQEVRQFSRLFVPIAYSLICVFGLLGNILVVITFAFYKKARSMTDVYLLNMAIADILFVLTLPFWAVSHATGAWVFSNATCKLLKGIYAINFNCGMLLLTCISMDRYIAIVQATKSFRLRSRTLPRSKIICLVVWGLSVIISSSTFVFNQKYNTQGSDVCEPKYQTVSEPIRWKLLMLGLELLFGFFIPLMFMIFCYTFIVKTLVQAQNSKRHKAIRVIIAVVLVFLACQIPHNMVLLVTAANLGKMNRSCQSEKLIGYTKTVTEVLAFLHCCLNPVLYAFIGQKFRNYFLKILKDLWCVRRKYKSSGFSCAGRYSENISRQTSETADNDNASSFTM
Description: Migration assay (chemotaxis, ChemoTX). The format is cell-based. Conditions: hCCR6-transfected Ba/F3 cells in human serum, migration to recombinant human CCL20 10 nM, 37° C. 45 minutes; read-out: Potency (IC50 value in the migration assay). The method, boiled down:
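Ba/F3 cells transfected with human CCR6 and butyrate-primed for 24 h were suspended at 4 million/ml in human serum with compound, serially diluted from a 1 μM final top concentration. Cells migrated through a 5-μm polycarbonate membrane toward 10 nM human CCL20 for 45 min at 37 °C. Migrated cells were quantified by CyQUANT fluorescence.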
Regarding `O=S(=O)(c1ccc(-c2ccc(N3CC[C@H](O)C3)nc2)cc1)N1CC[C@@H](Nc2ccc(C(F)(F)F)cn2)[C@@H](O)C1` [Compound 175], the IC50 is under 1 nM. In the case of `O=S(=O)(c1ccc(-c2ccc(N3CC[C@@H](O)C3)nc2)cc1)N1CC[C@@H](Nc2ccc(C(F)(F)F)cn2)[C@@H](O)C1` [Compound 176] it was under 1 nM. Consider `CN(C)C1CN(c2cc(-c3ccc(S(=O)(=O)N4CC[C@@H](Nc5ccc(C(F)(F)F)cn5)[C@@H](O)C4)cc3)ccn2)C1` [Compound 177], for which the IC50 was in the range of 1 to 10 nM.

Consider `O=C1CN(c2ccc(-c3ccc(S(=O)(=O)N4CC[C@@H](Nc5ccc(C(F)(F)F)cn5)[C@@H](O)C4)cc3)cn2)CCN1` [Compound 178], for which the IC50 was under 1 nM. In the case of `O=C1CNCCN1c1ccc(-c2ccc(S(=O)(=O)N3CC[C@@H](Nc4ccc(C(F)(F)F)cn4)[C@@H](O)C3)cc2)cn1` [Compound 179] it was under 1 nM; in that of `O=c1[nH]ncc2ccc(-c3ccc(S(=O)(=O)N4CC[C@@H](Nc5ccc(C(F)(F)F)cn5)[C@@H](O)C4)cc3)cc12` [Compound 180], under 1 nM. In the case of `NS(=O)(=O)c1cc(-c2ccc(S(=O)(=O)N3CC[C@@H](Nc4ccc(C(F)(F)F)cn4)[C@@H](O)C3)cc2)ccn1` [Compound 181] it was under 1 nM; in that of `COc1c(-c2ccc(S(=O)(=O)N3CC[C@@H](Nc4ccc(C(F)(F)F)cn4)[C@@H](O)C3)cc2)ccnc1C(N)=O` [Compound 182], under 1 nM. The value for `Cc1ncc(C(N)=O)cc1-c1ccc(S(=O)(=O)N2CC[C@@H](Nc3ccc(C(F)(F)F)cn3)[C@@H](O)C2)cc1` [Compound 183] was under 1 nM; that for `Cc1c(C(N)=O)cncc1-c1ccc(S(=O)(=O)N2CC[C@@H](Nc3ccc(C(F)(F)F)cn3)[C@@H](O)C2)cc1` [Compound 184] was under 1 nM. For `Cc1cncc(C)c1-c1ccc(S(=O)(=O)N2CC[C@@H](Nc3ccc(C(F)(F)F)cn3)[C@@H](O)C2)cc1` [Compound 185], the IC50 is under 1 nM. In the case of `CN(C)C(=O)N1Cc2ccc(-c3ccc(S(=O)(=O)N4CC[C@@H](Nc5ccc(C(F)(F)F)cn5)[C@@H](O)C4)cc3)cc2C1` [Compound 186] it was under 1 nM. As for `CNC(=O)N1Cc2ccc(-c3ccc(S(=O)(=O)N4CC[C@@H](Nc5ccc(C(F)(F)F)cn5)[C@@H](O)C4)cc3)cc2C1` [Compound 187], the IC50 was under 1 nM. For `CNC(=O)N1Cc2cc(-c3ccc(S(=O)(=O)N4CC[C@@H](Nc5ccc(C(F)(F)F)cn5)[C@@H](O)C4)cc3)cc(C)c2C1` [Compound 188], the IC50 is under 1 nM.

Turning to `O=S(=O)(c1ccc(-c2cnc3c(O)nccc3c2)cc1)N1CC[C@@H](Nc2ccc(C(F)(F)F)cn2)[C@@H](O)C1` [Compound 190], the IC50 was under 1 nM.

For the molecule `O=S(=O)(c1ccc(-c2cnc3[nH]nc(-c4ncc[nH]4)c3c2)cc1)N1CC[C@@H](Nc2ccc(C(F)(F)F)cn2)[C@@H](O)C1` [Compound 191], the IC50 was under 1 nM. As for `Cc1cc(C(F)(F)F)cnc1N[C@@H]1CCN(S(=O)(=O)c2ccc(-c3cnc4[nH]cc(C#N)c4c3)cc2)C[C@@H]1O` [Compound 192], the IC50 was under 1 nM. The value for `N#Cc1n[nH]c2ncc(-c3ccc(S(=O)(=O)N4CC[C@@H](Nc5ccc(C(F)(F)F)cn5)[C@@H](O)C4)cc3)cc12` [Compound 193] was under 1 nM; that for `O=S(=O)(c1ccc(-c2nnc(N3CCOCC3)o2)cc1)N1CC[C@@H](Nc2ccc(C(F)(F)F)cn2)[C@@H](O)C1` [Compound 194] was 10 to 1000 nM; that for `CN(C)c1cc(-c2ccc(S(=O)(=O)N3CC[C@@H](Nc4ccc(C(F)(F)F)cn4)[C@@H](O)C3)cc2)cc(C(N)=O)n1` [Compound 196] was under 1 nM.

For `NC(=O)c1ncc(-c2ccc(S(=O)(=O)N3CC[C@@H](Nc4ccc(C(F)(F)F)cn4)[C@@H](O)C3)cc2)[nH]1` [Compound 197], the IC50 fell in the range of 1 to 10 nM.

`NC(=O)c1cc(-c2ccc(S(=O)(=O)N3CC[C@@H](Nc4ccc(C(F)(F)F)cn4)[C@@H](O)C3)cc2)cnn1` [Compound 198]: the IC50 is under 1 nM.

The record behind these values is patent US12018016B2, “Aryl sulfonyl (hydroxy) piperidines as CCR6 inhibitors” (CHEMOCENTRYX, INC., priority 2021, dated 2024).
